Measured values published in US9320803B2 (priority 2011, dated 2016).

Columns and labels:
cathepsin B = target: T1, cathepsin B (Homo sapiens, UniProt P07858); assay: Cleavage studies with cathepsin B (HPLC); assay type: biochemical
T1 construct: purchased Calbiochem, Germany
Method: For cleavage of 16 with cathepsin B, 150 μL of a 50 mM sodium acetate buffer containing 100 mM NaCl, 4 mM EDTA Na2 and 0.15 mg L-cysteine (pH 5.0). 6.7 μL cathepsin B solution (23.8 U/mg, from Calbiochem, Germany) were added to a 100 μL solution of 16 (300 μM in 50 mM sodium phosphate buffer, pH 7.0) and the solution incubated for 1 h at 37° C.
HPLC was carried out with a Symmetry300, C18, 5 μm (4.6×250 mm) HPLC using 15% acetonitrile and 85% 20 mM sodium phosphate buffer (pH 7.0) as mobile phase A and 30% acetonitrile and 70% 20 mM sodium phosphate buffer (pH 7.0) as mobile phase B. The gradient was 0 to 1.5 min 100% phase A, 1.5 to 20 min to 100% B, 20 min to 45 min 100% B, 45 to 55 min to 100% A. Flow 1 mL/min; injection volume: 50 μL.
A 176 μL stock solution of compound 23 [1.5 mM] was diluted with 9 μL cathepsin B (0.4 mg/mL, 23.8 U/mg, from Calbiochem, Germany) and 264 μL of buffer (50 mM sodium acetate, 100 mM NaCl, 4 mM EDTA, pH 5.0) containing L-cysteine (8 mM). The mixture was incubated at 37° C. and aliquots (65 μL) were taken after 0 min, 20 min, 40 min, 60 min and 120 min and analyzed by HPLC. […]

[1] = Binding studies to hydroxyapatite; settings: pH 7.4, 37° C., 300 μM, hydroxyapatite 30 eq
Method: General procedure: In a falcon tube, the test compound was diluted in phosphate-buffer (4 mM Na2HPO4 containing 150 mM NaCl, pH 7.4) to obtain a solution with a concentration of 300 μM. Hydroxyapatite (30 eq) was added and the suspension was stirred well and incubated at 37° C. Another solution of the samples without hydroxyapatite was used as control. […] (4000 rpm, duration: 60 sec, Heraeus® Megafuge® 1.0) and the absorbance of the supernatant was measured with a spectrophotometer at a wavelength of 495 nm (ε495(doxorubicin)=10 650 M^−1 cm^−1). Each result represents the arithmetic average of three measurements and percent HA binding was calculated.

[2] = Acid cleavage study of compound 14 (HPLC); assay type: physicochemical; settings: pH 3.8 (phosphoric acid added), after 5 min at room temperature, 300 μM, reverse phase HPLC
Method: 1 mL of a 300 μM solution of 14 in 50 mM sodium phosphate buffer was prepared and a 50 μL sample was analyzed by reverse phase HPLC (see FIG. 1A). To 400 μL of this solution was added 4 μL concentrated phosphoric acid resulting in a pH value of 3.8.

[3] = pH 5.0; cited from earlier work
[4] = Binding studies to native bone matrix; parameters: species or system bovine; settings: after 4 h, pH 7.4, 37° C., 300 μM, about 50 mg bone piece
Method: For this binding assay, bovine bone fragments were cut into small pieces (6 mm×4 mm×1 mm). The bone pieces were left untreated, washed with water (bidest.) and with absolute ethanol and dried over night at room temperature. Then, in a falcon tube the prodrugs were dissolved in phosphate-buffer (4 mM Na2HPO4 containing 150 mM NaCl, pH 7.4) to obtain a concentration of 300 μM. Approximately 50 mg of an untreated bone piece was added to the clear red solution, and the samples were incubated under stirring at 37° C. After 4 h, the samples were centrifuged (4000 rpm, duration: 60 sec, Heraeus® Megafuge® 1.0), and the absorbance of the supernatant was measured with a spectrophotometer at a wavelength of 495 nm (ε495(doxorubicin)=10650 M^−1 cm^−1). Percent bone binding was calculated

SMILES: COc1cccc2c1C(=O)c1c(O)c3c(c(O)c1C2=O)C[C@@](O)(C(=O)CO)CC3O[C@H]1C[C@H](NC(=O)OCc2ccc(NC(=O)[C@H](C)NC(=O)[C@@H](NC(=O)CCCCCN3C(=O)CC(SCCCSCC(P(=O)(O)O)P(=O)(O)O)C3=O)C(C)C)cc2)[C@H](O)[C@H](C)O1 (stereo partly shown) [compound 23]
- cleavage to doxorubicin by cathepsin B (cathepsin B; incubation 2 h at 37° C., pH 5.0, reversed phase HPLC): complete cleavage to doxorubicin
- percent HA binding ([1]; after 5 h): over 90%
- percent HA binding ([1]; after 24 h): ~100%
- percent HA binding ([1]; after one hour): approximately 50%

SMILES: COc1cccc2c1C(=O)c1c(O)c3c(c(O)c1C2=O)C[C@@](O)(/C(CO)=N/NC(=O)CCCCCN1C(=O)CC(SCCCSCC(P(=O)(O)O)P(=O)(O)O)C1=O)C[C@@H]3OC1C[C@@H](N)[C@@H](O)[C@@H](C)O1 (stereo partly shown) [compound 14]
- cleavage to doxorubicin [2]: rapid cleavage to doxorubicin
- percent HA binding ([1]; after 5 h): ~80%
- percent HA binding ([1]; after one hour): approximately 50%

SMILES: COc1cccc2c1C(=O)c1c(O)c3c(c(O)c1C2=O)C[C@@](O)(/C(CO)=N/NC(=O)CCCCCN1C(=O)C=CC1=O)C[C@@H]3O[C@H]1C[C@H](N)[C@H](O)[C@H](C)O1 [DOXO-EMCH, 6-maleimidocaproylhydazone derivative of doxorubicin]
- acid-sensitive cleavage releasing doxorubicin [3]: cleavable at pH 5.0

SMILES: COc1cccc2c1C(=O)c1c(O)c3c(c(O)c1C2=O)C[C@@](O)(C(=O)CO)C[C@@H]3O[C@H]1C[C@H](N)[C@H](O)[C@H](C)O1 [doxorubicin]
- percent bone binding [4]: no binding

SMILES: COc1cccc2c1C(=O)c1c(O)c3c(c(O)c1C2=O)C[C@@](O)(C(=O)CO)CC3O[C@H]1C[C@H](NC(=O)OCc2ccc(NC(=O)C(CCCCN)NC(=O)C(Cc3ccccc3)NC(=O)CCCCCN3C(=O)CC(SCCCSCC(P(=O)(O)O)P(=O)(O)O)C3=O)cc2)[C@H](O)[C@H](C)O1 (stereo partly shown) [compound 16]
- cleavage to doxorubicin by cathepsin B (cathepsin B; incubation 1 h at 37° C., buffer pH 5.0, reverse phase HPLC): complete cleavage to doxorubicin
